# Where two headings read alike, the source gives them in different places.
# What was measured:
# A549 (lung cancer) = test: MTT assay, A549 cells; format: cell-based, human; conditions: Homo sapiens, read-out: IC50 A549
# Experimental: (§1) The human cell lines, such as A549 (lung cancer), MDA-MB-231 (breast cancer), MiaPaca-2 (pancreatic cancer), PC3 (metastatic prostate cancer), HCT-116 (colon carcinoma), and HaCaT (immortalized keratinocytes), were sourced from the American Type Culture Collection (ATCC) in Rockville, USA. Culturing conditions varied as follows: HCT116 cells were cultured in MEM (ThermoSci, Waltham, MA, USA), A549, MDA-MB-231, MiaPaca, HaCaT cells in DMEM High Glucose and PC3 cells were cultured in RPMI (Biowest SAS, Nuaillé, France). The growth medium consisted of 10% fetal bovine serum (FBS, Sigma-Aldrich, St. Louis, MO, USA), 20 mM HEPES (Biowest, Nuaillé, France), and antibiotics (100 U/mL of penicillin and 100 μg/mL of streptomycin) from Gibco, Grand Island, NY, USA. […] These compounds were added to 96-well plates containing study cells (1 × 10^4 cells per well) and incubated for 72 h. […] Cell absorbance results were incorporated into the formula for calculating the relative MTT level (%), enabling the assessment of cell viability following exposure to the test compounds. The cell viability percentage represents the MTT reduction in cells treated with the test compounds compared to the control sample, where only the medium was added to the cells.
# HCT116 cells [1] = test: Cell cycle analysis by flow cytometry, HCT116; format: cell-based, human; conditions: IC50, 24 h, compared to the control
# Experimental: In brief, cells were seeded at a density of 1 × 10^5 cells/well on a six-well plate and allowed to adhere for 24 h. […] Both population cells (the attached and detached) were collected and centrifuged at 400× g for 5 min at 4 °C. After centrifugation, the cells were washed twice with 0.9% NaCl and subsequently fixed in 500 μL of 70 % cold ethanol overnight.
# Before analysis, the fixed cells underwent another centrifugation step at 850× g for 5 min at 4 °C and were washed with PBS. Following the washes, the cells were incubated with 50 μL of RNase (100 μg/mL) and 200 μL of propidium iodide (PI) (50 μg/mL) at 37 °C for 30 min in the dark. Finally, 100 μL of PBS was added to each sample. Flow cytometry (Becton Dickinson FACS Verse, Franklin Lakes, NJ, USA) was then used to analyze the cell cycle distribution, identifying cells in various stages including sub-G1, G0/G1, S, and G2/M phases. Each assay was performed in quadruplicate.
# HCT116 (colon cancer) = test: MTT assay, HCT116 cells; format: cell-based, human; conditions: for IC50: Homo sapiens, read-out: IC50 HCT116
# Experimental: as §1
# PC3 (prostate cancer) = test: MTT assay, PC3 cells; format: cell-based, human; conditions: for IC50: Homo sapiens, read-out: IC50 PC3; for SI PC3: SI = IC50 for normal cell line (HaCaT)/IC50 cancer cell line
# Experimental: as §1
# HCT116 cells [2] = test: Annexin V-FITC/PI apoptosis flow cytometry, HCT116; format: cell-based, human; conditions: for HCT-116: Alive / HCT-116: Early Apoptotic / HCT-116: Necrotic / HCT-116: Necrotic/Late Apoptotic: representative dot plot, Figure 4C, IC50, 72 h
# Experimental: (§2) To analyze the number of cells in early apoptosis, late apoptosis, or necrosis, A549, MiaPaca-2, and HCT-116 cell lines were cultured in 6-well plates with a seeding density of 1 × 10^5 cells per well. These cells were then treated with selected compounds (4, 5, and 8) at their respective IC50 concentrations and incubated for 72 h. Subsequently, a commercially available kit, the FITC: Annexin V Apoptosis Detection Kit I from BD Biosciences Pharmingen in San Jose, CA, USA, was utilized to assess apoptosis. After 72 h the cells were harvested, washed, and labeled with Annexin V-FITC and propidium iodide (PI) following the manufacturer’s protocol (Becton Dickinson), as previously described. The stained cells were analyzed by flow cytometry. The cells were identified as early apoptotic (Annexin V+/PI−) or late apoptotic/necrotic (Annexin V+/PI+).
# [3] = system: MiaPaCa-2 (pancreas cancer); test: MTT assay, MiaPaCa-2 cells; format: cell-based, human; conditions: for IC50: Homo sapiens, read-out: IC50 MiaPaCa-2; for SI MiaPaCa-2: SI = IC50 for normal cell line (HaCaT)/IC50 cancer cell line
# Experimental: as §1
# S. aureus ATCC 25923 = test: MIC broth microdilution; format: cell-based; conditions: Staphylococcus aureus, read-out: MIC S. aureus ATCC 25923
# Source text: (§3) To evaluate the antibacterial effectiveness of chloroquinobenzothiazine derivatives, various bacterial strains from international microbe collections such as the American Type Culture Collection (ATCC) and the National Collection of Type Culture (NCTC) were examined, alongside a panel of clinical rods. This included two Gram-negative organisms, E. coli ATCC 25922 and P. aeruginosa ATCC 15442, and a series of six Gram-positive strains: S. aureus NCTC 4163; S. aureus ATCC 29213, 25923, and 6538; and S. epidermidis ATCC 12228 and 35984. […] The MIC was determined using the two-fold serial broth microdilution method in 96-well microtitration plates containing Mueller-Hinton II broth medium (Becton Dickinson, Franklin Lakes, NJ, USA). The final inoculum for all tested bacteria was adjusted to […] (colony-forming units per milliliter). The stock solution of the tested compounds was prepared in dimethyl sulfoxide (DMSO) and diluted to a maximum of 1% solvent content with a sterile medium.
# [4] = system: S. epidermidis ATCC 35984; test: MIC broth microdilution; format: cell-based; conditions: for MIC: Staphylococcus epidermidis, read-out: MIC S. epidermidis ATCC 35984
# Source text: as §3
# P. aeruginosa ATCC 15442 = test: MIC broth microdilution; format: cell-based; conditions: Pseudomonas aeruginosa, read-out: MIC P. aeruginosa ATCC 15442
# Source text: as §3
# S. aureus NCTC 4163 = test: MIC broth microdilution; format: cell-based; conditions: Staphylococcus aureus, read-out: MIC S. aureus NCTC 4163
# Source text: as §3
# S. aureus ATCC 6538 = test: MIC broth microdilution; format: cell-based; conditions: Staphylococcus aureus, read-out: MIC S. aureus ATCC 6538
# Source text: as §3
# [5] = system: S. epidermidis ATCC 12228; test: MIC broth microdilution; format: cell-based; conditions: Staphylococcus epidermidis, read-out: MIC S. epidermidis ATCC 12228
# Source text: as §3
# E. coli ATCC 25922 = test: MIC broth microdilution; format: cell-based; conditions: Escherichia coli, read-out: MIC E. coli ATCC 25922
# Source text: as §3
# S. aureus ATCC 29213 = test: MIC broth microdilution; format: cell-based; conditions: Staphylococcus aureus, read-out: MIC S. aureus ATCC 29213
# Source text: as §3
# [6] = system: MDA-MB-231 (breast cancer); test: MTT assay, MDA-MB-231 cells; format: cell-based, human; conditions: for IC50: Homo sapiens, read-out: IC50 MDA; for SI MDA: SI = IC50 for normal cell line (HaCaT)/IC50 cancer cell line
# Experimental: as §1
# [7] = system: HaCaT (immortalized human keratinocytes); test: MTT assay, HaCaT normal cells; format: cell-based; conditions: Homo sapiens, HaCaT, 72 h, read-out: IC50 HaCaT (Table 3)
# Experimental: as §1
# A549 cells = test: Annexin V-FITC/PI apoptosis flow cytometry, A549; format: cell-based, human; conditions: for A549: Alive / A549: Early Apoptotic / A549: Necrotic / A549: Necrotic/Late Apoptotic: representative dot plot, Figure 4A, IC50, 72 h
# Experimental: as §2
compound,measurement,setting,value
"CN(C)CCCN1c2cc(Cl)ccc2Sc2cc3ccccc3nc21 [Compound 8, 3-(8-Chloroquino[3,2-b]benzo[1,4]thiazin-6-yl)-N,N-dimethylpropan-1-amine]",IC50,"A549 (lung cancer); A549, MTT, 72 h, mean SD",8.2 ± 3.6 µM
same,"increase in the cell amount at the sub-G1 phase, HCT116",HCT116 cells [1],5 fold
same,"increase in the number of cells in the G2/M phase, HCT116",HCT116 cells [1],approximately 1.3 fold
same,"increase in the number of cells in the S phase, HCT116",HCT116 cells [1],approximately 2 fold
same,IC50,"HCT116 (colon cancer); HCT-116, MTT, 72 h",1.6 ± 0.8 µM
same,IC50,"PC3 (prostate cancer); PC-3, MTT, 72 h",52.1 ± 7.1 µM
same,SI PC3,PC3 (prostate cancer),1.2
same,"cells in early apoptosis, HCT116","HCT116 cells [2]; compound at IC50, 72 h",9.09 ± 0.5%
same,"cells in late apoptosis/necrosis, HCT116","HCT116 cells [2]; compound at IC50, 72 h",8.55 ± 0.33%
same,HCT-116: Alive,HCT116 cells [2],78.75%
same,HCT-116: Early Apoptotic,HCT116 cells [2],9.09%
same,HCT-116: Necrotic,HCT116 cells [2],3.61%
same,HCT-116: Necrotic/Late Apoptotic,HCT116 cells [2],8.55%
same,IC50,"[3]; MIA PaCa-2, MTT, 72 h",40.2 ± 0.7 µM
same,SI MiaPaCa-2,[3],1.6
same,MIC,"S. aureus ATCC 25923; ATCC25923, 19 h, 35 °C",8 µg/mL
same,MIC,"[4]; ATCC35984, 19 h, 35 °C",8 µg/mL
same,MIC,"P. aeruginosa ATCC 15442; ATCC15442, 19 h, 35 °C",256 µg/mL
same,MIC,"S. aureus NCTC 4163; NCTC4163, 19 h, 35 °C",8 µg/mL
same,MIC,"S. aureus ATCC 6538; ATCC6538, 19 h, 35 °C",8 µg/mL
same,MIC,"[5]; ATCC12228, 19 h, 35 °C",8 µg/mL
same,MIC,"E. coli ATCC 25922; ATCC25922, 19 h, 35 °C",64 µg/mL
same,MIC,"S. aureus ATCC 29213; ATCC29213, 19 h, 35 °C",8 µg/mL
same,IC50,"[6]; MDA-MB-231, MTT, 72 h, MDA-MB231",52.1 ± 2.7 µM
same,SI MDA,[6],1.2
same,IC50,"[7]; MTT, normal cells",62.3 ± 2.5 µM
same,"cells in late apoptosis or necrosis, A549","A549 cells; compound at IC50, 72 h",42%
same,A549: Alive,A549 cells,62.41%
same,A549: Early Apoptotic,A549 cells,2.39%
same,A549: Necrotic,A549 cells,24.93%
same,A549: Necrotic/Late Apoptotic,A549 cells,10.27%
"O=C(NCCCl)NCCCN1c2cc(Cl)ccc2Sc2cc3ccccc3nc21 [Compound 20, 1-(3-(8-Chloroquino[3,2-b]benzo[1,4]thiazin-6-yl)propyl)-3-(2-chloroethyl)urea]",IC50,"A549 (lung cancer); A549, 72 h",9.3 ± 1.2 µM
same,"increase in the cell amount at the sub-G1 phase, HCT116",HCT116 cells [1],3 fold
same,IC50,"HCT116 (colon cancer); HCT-116, 72 h",10.4 ± 1.6 µM
same,SI HCT116,HCT116 (colon cancer); SI = IC50 for normal cell line (HaCaT)/IC50 cancer cell line,8.8
same,IC50,"PC3 (prostate cancer); PC-3, 72 h",34.8 ± 9.8 µM
same,SI PC3,PC3 (prostate cancer),2.8
same,HCT-116: Alive,HCT116 cells [2],83.79%
same,HCT-116: Early Apoptotic,HCT116 cells [2],7.24%
same,HCT-116: Necrotic,HCT116 cells [2],4.80%
same,HCT-116: Necrotic/Late Apoptotic,HCT116 cells [2],4.17%
same,IC50,"[3]; MIA PaCa-2, 72 h",23.2 ± 2.7 µM
same,SI MiaPaCa-2,[3],4.3
same,MIC,"S. aureus ATCC 25923; ATCC25923, 19 h",8 µg/mL
same,MIC S. epidermidis ATCC 35984,"[4]; 19 h, 35 °C",4 µg/mL
same,MIC,"[4]; ATCC35984, 19 h",4 µg/mL
same,MIC,"P. aeruginosa ATCC 15442; ATCC15442, 19 h",> 256 µg/mL
same,MIC,"S. aureus NCTC 4163; NCTC4163, 19 h",8 µg/mL
same,MIC,"S. aureus ATCC 6538; ATCC6538, 19 h",8 µg/mL
same,MIC,"[5]; ATCC12228, 19 h",8 µg/mL
same,MIC,"E. coli ATCC 25922; ATCC25922, 19 h",> 256 µg/mL
same,MIC,"S. aureus ATCC 29213; ATCC29213, 19 h",8 µg/mL
same,IC50,"[6]; MDA-MB-231, 72 h",48.6 ± 7.3 µM
same,SI MDA,[6],2.0
same,IC50,[7],> 100 µM
same,A549: Alive,A549 cells,88.24%
same,A549: Early Apoptotic,A549 cells,0.13%
same,A549: Necrotic,A549 cells,10.74%
same,A549: Necrotic/Late Apoptotic,A549 cells,0.89%

# From publication PMC11050599, “Novel Tetracyclic Azaphenothiazines with the Quinoline Ring as New Anticancer and Antibacterial Derivatives of Chlorpromazine” (International Journal of Molecular Sciences, 2024)
